Test [1] concerns the target Serine/threonine-protein kinase Chk2 (Homo sapiens, UniProt O96017). Put plainly: Inhibition of recombinant human CHK2 (5 to end residues) using KKKVSRSGLYRSPSMPENLNRPR as substrate incubated for 40 mins in presence of [gamma-33ATP] by scintillation counting based radiometry assay.
In test [2] the target is T1, G protein-coupled receptor kinase 3 (Homo sapiens, UniProt P35626).
T1 sequence (P35626 whole entry): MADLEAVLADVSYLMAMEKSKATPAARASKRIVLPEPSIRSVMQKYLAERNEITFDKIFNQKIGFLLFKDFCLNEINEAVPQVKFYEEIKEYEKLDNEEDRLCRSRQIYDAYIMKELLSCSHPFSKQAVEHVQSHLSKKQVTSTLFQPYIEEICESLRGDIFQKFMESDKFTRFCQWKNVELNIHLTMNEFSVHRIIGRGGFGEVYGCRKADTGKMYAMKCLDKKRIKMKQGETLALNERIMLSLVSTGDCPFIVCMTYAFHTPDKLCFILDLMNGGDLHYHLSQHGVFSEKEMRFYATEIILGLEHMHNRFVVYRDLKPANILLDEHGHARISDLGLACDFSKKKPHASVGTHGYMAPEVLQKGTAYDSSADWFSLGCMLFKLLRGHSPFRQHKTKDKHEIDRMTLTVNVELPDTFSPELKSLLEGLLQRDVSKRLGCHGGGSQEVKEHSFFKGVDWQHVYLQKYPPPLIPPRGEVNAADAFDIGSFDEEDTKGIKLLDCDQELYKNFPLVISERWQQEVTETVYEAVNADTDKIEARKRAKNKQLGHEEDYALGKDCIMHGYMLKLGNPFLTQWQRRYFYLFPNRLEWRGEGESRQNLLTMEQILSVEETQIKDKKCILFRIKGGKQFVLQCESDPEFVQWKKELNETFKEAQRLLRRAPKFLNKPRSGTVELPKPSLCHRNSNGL
Put plainly: Inhibition of human GRK3 using casein as substrate in presence of [gamma33P]ATP by radiometric hotspot kinase assay.

Sequence of Serine/threonine-protein kinase Chk2 (O96017 whole entry): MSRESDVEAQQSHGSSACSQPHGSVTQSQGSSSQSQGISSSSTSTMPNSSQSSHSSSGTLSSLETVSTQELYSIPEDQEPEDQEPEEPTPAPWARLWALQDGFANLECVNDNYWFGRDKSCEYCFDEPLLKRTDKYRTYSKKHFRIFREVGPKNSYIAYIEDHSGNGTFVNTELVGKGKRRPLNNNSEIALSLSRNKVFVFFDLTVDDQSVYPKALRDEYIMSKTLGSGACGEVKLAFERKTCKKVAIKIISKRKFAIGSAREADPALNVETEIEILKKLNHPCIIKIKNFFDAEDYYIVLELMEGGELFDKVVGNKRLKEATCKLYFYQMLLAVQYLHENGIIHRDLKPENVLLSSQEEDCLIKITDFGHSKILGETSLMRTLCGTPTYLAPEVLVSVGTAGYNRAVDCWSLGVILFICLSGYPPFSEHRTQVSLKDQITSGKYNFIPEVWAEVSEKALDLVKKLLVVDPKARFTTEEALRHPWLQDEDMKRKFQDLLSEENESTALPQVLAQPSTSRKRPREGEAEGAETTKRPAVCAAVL

The IC50 is the midpoint of a concentration-inhibition curve. In the case of `CCc1cc(Nc2nc(NCc3ccc(Cl)cc3OC)nc3cccc(OC)c23)n[nH]1`, the figures for the IC50 in test [1] and in test [2] were 820 nM and greater than 10000 nM, respectively.

The record behind these values is ChEMBL document CHEMBL4808217, “Design, Synthesis, and Characterization of 4-Aminoquinazolines as Potent Inhibitors of the G Protein-Coupled Receptor Kinase 6 (GRK6) for the Treatment of Multiple Myeloma” (J Med Chem, 2021).
